As usually defined, the viability, T/C is the ratio of treated to control.

The structures appear in SMILES notation.
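Note: spheroids exposed to compounds for seven days; 100% = DMSO vehicle control viability.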

In the first experiment the test system is 695427-040-R-J1-PDC complex spheroid viability. The experiment in a line: Anticancer human tumor 695427-040-R-J1-PDC patient-derived colon adenocarcinoma cell line growth inhibition [POLQ]. Particulars: second compound 3.16 µM; first compound 0.1 µM; stronger effect = lower value. In a few lines: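 Three-cell-type spheroids modelling solid tumor plus stroma served as the readout system; POL inhibitors were tested individually and in combination, concentration ranges set by clinical Cmax where known.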
As to `CCc1cc2c(N3CCc4c(cc(Cn5ccnc5)cc4-c4cn(C)nc4C(F)(F)F)C3=O)cc(C)nc2c(OC)n1` + Nc1ccc(C#CCN(C(=O)Cc2ncc(C(F)(F)F)cc2C(F)(F)F)c2ccc(F)cc2)nn1, the viability, T/C is 116%.

For `CCc1cc2c(N3CCc4c(cc(Cn5ccnc5)cc4-c4cn(C)nc4C(F)(F)F)C3=O)ccnc2c(OC)n1` + Nc1ccc(C#CCN(C(=O)Cc2ncc(C(F)(F)F)cc2C(F)(F)F)c2ccc(F)cc2)nn1, the viability, T/C was 104%.

Consider `COc1cc2cc(C(=O)CCC(=O)O)sc2cc1OC` + Nc1ccc(C#CCN(C(=O)Cc2ncc(C(F)(F)F)cc2C(F)(F)F)c2ccc(F)cc2)nn1, for which the viability, T/C was 101%.

The experiment is the same for the next values; noted with them: second compound 3.16 µM; first compound 0.316 µM; stronger effect = lower value.
Regarding `C=CC(=O)N1CCN(c2nc(=O)n(-c3c(C)ccnc3C(C)C)c3nc(-c4c(O)cccc4F)c(F)cc23)C(C)C1` (stereo unspecified) + Nc1ccc(C#CCN(C(=O)Cc2ncc(C(F)(F)F)cc2C(F)(F)F)c2ccc(F)cc2)nn1, the viability, T/C was 104%.

With `CC(C)n1c(=O)n(C)c2cnc3cc(F)c(-c4ccc(OCCCN5CCCCC5)nc4)cc3c21` + Nc1ccc(C#CCN(C(=O)Cc2ncc(C(F)(F)F)cc2C(F)(F)F)c2ccc(F)cc2)nn1, the viability, T/C is 105%.

Regarding `CCc1cc2c(N3CCc4c(cc(Cn5ccnc5)cc4-c4cn(C)nc4C(F)(F)F)C3=O)cc(C)nc2c(OC)n1` + Nc1ccc(C#CCN(C(=O)Cc2ncc(C(F)(F)F)cc2C(F)(F)F)c2ccc(F)cc2)nn1, the viability, T/C was 88.3%.

In the case of `CCc1cc2c(N3CCc4c(cc(Cn5ccnc5)cc4-c4cn(C)nc4C(F)(F)F)C3=O)ccnc2c(OC)n1` + Nc1ccc(C#CCN(C(=O)Cc2ncc(C(F)(F)F)cc2C(F)(F)F)c2ccc(F)cc2)nn1, the viability, T/C was 93.6%.

Consider `COc1cc2cc(C(=O)CCC(=O)O)sc2cc1OC` + Nc1ccc(C#CCN(C(=O)Cc2ncc(C(F)(F)F)cc2C(F)(F)F)c2ccc(F)cc2)nn1, for which the viability, T/C was 102%.

Staying with this experiment, now noted: second compound 3.16 µM; first compound 1 µM; stronger effect = lower value.
Consider `C=CC(=O)N1CCN(c2nc(=O)n(-c3c(C)ccnc3C(C)C)c3nc(-c4c(O)cccc4F)c(F)cc23)C(C)C1` (stereo unspecified) + Nc1ccc(C#CCN(C(=O)Cc2ncc(C(F)(F)F)cc2C(F)(F)F)c2ccc(F)cc2)nn1, for which the viability, T/C is 97.3%.

With `CC(C)n1c(=O)n(C)c2cnc3cc(F)c(-c4ccc(OCCCN5CCCCC5)nc4)cc3c21` + Nc1ccc(C#CCN(C(=O)Cc2ncc(C(F)(F)F)cc2C(F)(F)F)c2ccc(F)cc2)nn1, the viability, T/C is 104%.

As to `CCc1cc2c(N3CCc4c(cc(Cn5ccnc5)cc4-c4cn(C)nc4C(F)(F)F)C3=O)cc(C)nc2c(OC)n1` + Nc1ccc(C#CCN(C(=O)Cc2ncc(C(F)(F)F)cc2C(F)(F)F)c2ccc(F)cc2)nn1, the viability, T/C was 95.3%.

On to `CCc1cc2c(N3CCc4c(cc(Cn5ccnc5)cc4-c4cn(C)nc4C(F)(F)F)C3=O)ccnc2c(OC)n1` + Nc1ccc(C#CCN(C(=O)Cc2ncc(C(F)(F)F)cc2C(F)(F)F)c2ccc(F)cc2)nn1, for which the viability, T/C was 104%.

As to `COc1cc2cc(C(=O)CCC(=O)O)sc2cc1OC` + Nc1ccc(C#CCN(C(=O)Cc2ncc(C(F)(F)F)cc2C(F)(F)F)c2ccc(F)cc2)nn1, the viability, T/C is 99.1%.

Staying with this experiment, now noted: second compound 3.16 µM; first compound 3.16 µM; stronger effect = lower value.
For the compound `C=CC(=O)N1CCN(c2nc(=O)n(-c3c(C)ccnc3C(C)C)c3nc(-c4c(O)cccc4F)c(F)cc23)C(C)C1` (stereo unspecified) + Nc1ccc(C#CCN(C(=O)Cc2ncc(C(F)(F)F)cc2C(F)(F)F)c2ccc(F)cc2)nn1, the viability, T/C was 107%.

In the case of `CC(C)n1c(=O)n(C)c2cnc3cc(F)c(-c4ccc(OCCCN5CCCCC5)nc4)cc3c21` + Nc1ccc(C#CCN(C(=O)Cc2ncc(C(F)(F)F)cc2C(F)(F)F)c2ccc(F)cc2)nn1, the viability, T/C is 96%.

With `CCc1cc2c(N3CCc4c(cc(Cn5ccnc5)cc4-c4cn(C)nc4C(F)(F)F)C3=O)cc(C)nc2c(OC)n1` + Nc1ccc(C#CCN(C(=O)Cc2ncc(C(F)(F)F)cc2C(F)(F)F)c2ccc(F)cc2)nn1, the viability, T/C is 103%.

Consider `CCc1cc2c(N3CCc4c(cc(Cn5ccnc5)cc4-c4cn(C)nc4C(F)(F)F)C3=O)ccnc2c(OC)n1` + Nc1ccc(C#CCN(C(=O)Cc2ncc(C(F)(F)F)cc2C(F)(F)F)c2ccc(F)cc2)nn1, for which the viability, T/C is 103%.

For `COc1cc2cc(C(=O)CCC(=O)O)sc2cc1OC` + Nc1ccc(C#CCN(C(=O)Cc2ncc(C(F)(F)F)cc2C(F)(F)F)c2ccc(F)cc2)nn1, the viability, T/C is 106%.

The same experiment, now with this note: second compound 3.16 µM; first compound 10 µM; stronger effect = lower value.
`C=CC(=O)N1CCN(c2nc(=O)n(-c3c(C)ccnc3C(C)C)c3nc(-c4c(O)cccc4F)c(F)cc23)C(C)C1` (stereo unspecified) + Nc1ccc(C#CCN(C(=O)Cc2ncc(C(F)(F)F)cc2C(F)(F)F)c2ccc(F)cc2)nn1: the viability, T/C was 98.3%.

In the case of `CC(C)n1c(=O)n(C)c2cnc3cc(F)c(-c4ccc(OCCCN5CCCCC5)nc4)cc3c21` + Nc1ccc(C#CCN(C(=O)Cc2ncc(C(F)(F)F)cc2C(F)(F)F)c2ccc(F)cc2)nn1, the viability, T/C was 79.6%.

For `CCc1cc2c(N3CCc4c(cc(Cn5ccnc5)cc4-c4cn(C)nc4C(F)(F)F)C3=O)cc(C)nc2c(OC)n1` + Nc1ccc(C#CCN(C(=O)Cc2ncc(C(F)(F)F)cc2C(F)(F)F)c2ccc(F)cc2)nn1, the viability, T/C is 108%.

For `CCc1cc2c(N3CCc4c(cc(Cn5ccnc5)cc4-c4cn(C)nc4C(F)(F)F)C3=O)ccnc2c(OC)n1` + Nc1ccc(C#CCN(C(=O)Cc2ncc(C(F)(F)F)cc2C(F)(F)F)c2ccc(F)cc2)nn1, the viability, T/C is 90%.

For `COc1cc2cc(C(=O)CCC(=O)O)sc2cc1OC` + Nc1ccc(C#CCN(C(=O)Cc2ncc(C(F)(F)F)cc2C(F)(F)F)c2ccc(F)cc2)nn1, the viability, T/C is 86.4%.

Still in this experiment, the particulars now being: second compound 10 µM; first compound 0.0316 µM; stronger effect = lower value.
`C=CC(=O)N1CCN(c2nc(=O)n(-c3c(C)ccnc3C(C)C)c3nc(-c4c(O)cccc4F)c(F)cc23)C(C)C1` (stereo unspecified) + Nc1ccc(C#CCN(C(=O)Cc2ncc(C(F)(F)F)cc2C(F)(F)F)c2ccc(F)cc2)nn1: the viability, T/C was 97.2%.

`CC(C)n1c(=O)n(C)c2cnc3cc(F)c(-c4ccc(OCCCN5CCCCC5)nc4)cc3c21` + Nc1ccc(C#CCN(C(=O)Cc2ncc(C(F)(F)F)cc2C(F)(F)F)c2ccc(F)cc2)nn1: the viability, T/C is 99.7%.

Regarding `CCc1cc2c(N3CCc4c(cc(Cn5ccnc5)cc4-c4cn(C)nc4C(F)(F)F)C3=O)cc(C)nc2c(OC)n1` + Nc1ccc(C#CCN(C(=O)Cc2ncc(C(F)(F)F)cc2C(F)(F)F)c2ccc(F)cc2)nn1, the viability, T/C is 107%.

For the origin of these results see PubChem BioAssay AID1963840 (Molecular Pharmacology Branch, DTP, NCI, 2024).
